Data on eight compounds can be found in patent publication US20230192617A1, “AZABICYCLIC(THIO)AMIDES AS FUNGICIDAL COMPOUNDS” (Bayer CropScience Aktiengesellschaft, priority 2020, published 2023).

Series [1] can be described thus: Measurement of Log P values by HPLC on reversed phase columns (EEC directive 79/831 Annex V.A8). It is filed as physicochemical. The settings on record: method [a]: LC-UV, acidic range, 0.1% formic acid in water and acetonitrile as eluent. In short, it runs like this: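 Log P derived from retention on reversed-phase columns (EEC directive 79/831 Annex V.A8), LC-UV, acetonitrile gradient 10% to 95% against water containing 0.1% formic acid, 0.001 M ammonium acetate, or 0.1% phosphoric acid; several values per method separated by "+".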

The subject of a further series is Alternaria brassicae. Description: In vivo preventive test on Alternaria brassicae (leaf spot on radish or cabbage). To be noted: 500 ppm of active ingredient, preventive spray on radish or cabbage, evaluated 3 to 4 days after inoculation, read-out: efficacy. The method, boiled down:
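Protective spray on young radish or cabbage: actives in water diluted from DMSO/acetone/Tween 80, with solvent-only controls. Leaves were challenged after 24 h with a spore suspension, and plants were held at 100% RH, 20 °C for 3 to 4 days.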

The subject of series [2] is Botrytis cinerea. The experiment in a line: In vivo preventive test on Botrytis cinerea (grey mould). The settings on record: 500 ppm of active ingredient, preventive spray on gherkin or cabbage, evaluated 4 to 5 days after inoculation, read-out: efficacy. In short, it runs like this: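 Preventive spray on cabbage or gherkin seedlings, with compound formulated in DMSO/acetone/Tween 80 and water-diluted, preceded spore inoculation by 24 hours. Cabbage was held 4 to 5 days at 20° C., 100% relative humidity; gherkin 4 to 5 days at 17° C., 90% relative humidity.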

The subject of another series is Sphaerotheca fuliginea. Description: In vivo preventive test on Sphaerotheca fuliginea (powdery mildew on cucurbits). The settings on record: Podosphaera fuliginea, 192 h; 500 ppm of active ingredient; preventive spray on gherkin; evaluated 8 days after inoculation; read-out: efficacy. The method, boiled down: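 This is a preventive spray test on gherkin seedlings, with compound formulated in DMSO/acetone/Tween 80 in water and solvent-only controls. Spore inoculation followed one day after treatment. Incubation lasted 8 days at 20 °C, 70–80% RH.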

The subject of series [3] is Colletotrichum lindemuthianum. Description: In vivo preventive test on Colletotrichum lindemuthianum (leaf spot on bean). The settings on record: 168 h, 500 ppm of active ingredient, preventive spray on bean, evaluated 7 days after inoculation, read-out: efficacy. On the procedure: B-5. In Vivo Preventive Test on Colletotrichum lindemuthianum (Leaf Spot on Bean) [table] The active ingredients were made soluble and homogenized in a mixture of Dimethyl sulfoxide/Acetone/Tween® 80 and then diluted in water to the desired concentration. The young plants of bean were treated by spraying the active ingredient prepared as described above. Control plants were treated only with an aqueous solution of Acetone/Dimethyl sulfoxide/Tween® 80. After 24 hours, the plants were contaminated by spraying the leaves with an aqueous suspension of Colletotrichum lindemuthianum spores. The contaminated bean plants were incubated for 24 hours at 20° C. and at 100% relative humidity and then for 6 days at 20° C. and at 90% relative humidity.

A further series has as its system Alternaria alternata. The experiment in a line: Alternaria alternata in vitro cell test. Type of series: cell-based. The settings on record: 120 h, 20 ppm of active ingredient, liquid culture, 5 days incubation, spectrometric measurement of mycelium growth, read-out: efficacy (inhibition of fungal growth). In short, it runs like this:
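Spectrometric readout of mycelial growth after 5-day incubation gauged compound effects on spore germination and growth of A. alternata in liquid medium. Compounds were delivered in DMSO at ≤1% final. Absorbance was compared with untreated controls to give inhibition.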

The test system of series [4] is Colletotrichum lindemuthianum. The experiment in a line: B-8. Colletotrichum lindemuthianum in vitro cell test. Type of series: cell-based. The settings on record: 144 h, 20 ppm of active ingredient, 6 days incubation, liquid culture, absorbance, read-out: efficacy (inhibition of fungal growth). In short, it runs like this: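 Liquid-culture germination/growth test: compounds in ≤1% final DMSO were added to spore-containing medium. Fungal growth was quantified spectrophotometrically after 6 days of incubation and expressed as inhibition versus untreated controls.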

The test system of series [5] is Botrytis cinerea. The experiment in a line: B-11. Botrytis cinerea in vitro cell test. It is filed as cell-based. To be noted: 144 h, 20 ppm of active ingredient, 6 days incubation, liquid culture, absorbance, read-out: efficacy (inhibition of fungal growth). In short, it runs like this:
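B. cinerea spores were grown in liquid culture with compound (DMSO ≤1% final). Mycelium growth was measured spectrometrically after 6 days, with inhibition taken as absorbance relative to untreated control wells.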

The next series concerns Pyrenophora teres. Description: B-10. Pyrenophora teres in vitro cell test. Type of series: cell-based. To be noted: 144 h, 20 ppm of active ingredient, 6 days incubation, liquid culture, absorbance, read-out: efficacy (inhibition of fungal growth). The method, boiled down:
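Liquid-culture assay on a P. teres spore suspension with compounds added to the medium from DMSO solutions, final DMSO ≤1%. Mycelium growth read spectrometrically after 6 days. Inhibition calculated from absorbance against untreated control wells.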

In general, chromatographic logP refers to a lipophilicity value derived from retention on a column. The low end stands for a more hydrophilic compound, the high end for a more lipophilic compound. As usually defined, the inhibition is the percentage by which the read-out fell short of the control. Regarding `Cc1ccc([C@@H](F)CNC(=O)c2c(Oc3cccc(C(F)(F)F)c3)cnc3ccccc23)cc1C` (racemic) [I-056], the chromatographic logP in [1] (reversed phase HPLC column) turned out to be 4.33. The pest or weed control at 500 ppm (in the series on Alternaria brassicae; in the series with Botrytis cinerea [2]; in the series with Sphaerotheca fuliginea; in series [3]) was 90 to 100% throughout. The inhibition at 20 ppm (in the series with Alternaria alternata; in series [4]; in the series on Botrytis cinerea [5]) was 90 to 100% throughout.

For the compound `Cc1ccc(C(F)(F)CNC(=O)c2c(Oc3cccc(C(F)(F)F)c3)nnc3c2OCCO3)c(C)c1` [I-106], the chromatographic logP in [1] (reversed phase HPLC column) is 3.37. The pest or weed control at 500 ppm (in the series on Alternaria brassicae; in the series on Botrytis cinerea [2]; in the series with Sphaerotheca fuliginea; in series [3]) was 90 to 100% each time. In addition, the inhibition at 20 ppm (with Alternaria alternata; in [4]) was 90 to 100% each time.

In the case of `O=C(NC[C@H](F)c1ccc(Br)cc1Cl)c1c(Oc2cccc(C(F)(F)F)c2)nnc2c1OCCO2` (racemic) [I-105], the chromatographic logP in [1] (reversed phase HPLC column) is 3.48. Further, the pest or weed control at 500 ppm (in the series with Alternaria brassicae; in the series with Botrytis cinerea [2]; with Sphaerotheca fuliginea; in [3]) was 90 to 100% each time. In addition, the inhibition at 20 ppm (in the series on Alternaria alternata; in series [4]) was 90 to 100% in each case.

In the case of `O=C(NCC(F)(F)c1ccc(Br)cc1Cl)c1c(Oc2cccc(C(F)(F)F)c2)nnc2c1OCCO2` [I-103], the chromatographic logP in [1] (reversed phase HPLC column) was determined as 3.6. Further, the pest or weed control at 500 ppm was in the range of 80 to 89% in the series with Alternaria brassicae, 90 to 100% with Botrytis cinerea [2], 90 to 100% in the series on Sphaerotheca fuliginea and 80 to 89% in series [3]. In addition, the inhibition at 20 ppm (in the series on Alternaria alternata; in series [4]) was 90 to 100% each time.

Turning to `O=C(NCCc1ccc2c(c1)OCCO2)c1c(Oc2cccc(C(F)(F)F)c2)nnc2ccccc12` [I-086], the chromatographic logP in [1] came to 3.42. Also, the pest or weed control at 500 ppm (in the series on Alternaria brassicae; in the series with Botrytis cinerea [2]; in [3]) was 90 to 100% in each case. In addition, the inhibition at 20 ppm (with Alternaria alternata; in [4]; in the series on Pyrenophora teres; in the series with Botrytis cinerea [5]) was 90 to 100% throughout.

As for `Cc1ccc([C@H](C)NC(=O)c2c(Oc3cccc(C(F)(F)F)c3)nnc3c2OCCO3)cc1` (racemic) [I-102], in series [1] (reversed phase HPLC column), the chromatographic logP was determined as 3.02. Also, the pest or weed control at 500 ppm (in the series with Alternaria brassicae; in the series on Botrytis cinerea [2]; in the series on Sphaerotheca fuliginea; in series [3]) was 90 to 100% each time. For the same compound, the inhibition at 20 ppm (with Alternaria alternata; in [4]) was 90 to 100% throughout.

`O=C(NCC(F)c1ccc(Cl)cc1Cl)c1c(Oc2cccc(C(F)(F)F)c2)nnc2c1OCCO2` (racemic) [I-101, N-[2-(2,4-dichlorophenyl)-2-fluoro-ethyl]-3-[3-(trifluoro-methyl)phenoxy]-6,7-dihydro-[1,4]dioxino[2,3-c]pyridazine-4-carboxamide] yielded a chromatographic logP in series [1] (reversed phase HPLC column) of 3.37. The pest or weed control at 500 ppm (with Alternaria brassicae; in the series with Botrytis cinerea [2]; in the series on Sphaerotheca fuliginea; in series [3]) was 90 to 100% each time. Also, the inhibition at 20 ppm in the series with Alternaria alternata was in the range of 90 to 100%; in [4], 80 to 89%.

With `Cc1ccc2c(C(=O)NC[C@H](F)c3ccc(Br)cc3Cl)c(Oc3cccc(C(F)(F)F)c3)nnc2c1` (racemic) [I-046], in series [1] (reversed phase HPLC column), the chromatographic logP turned out to be 4.57. Also, the pest or weed control at 500 ppm (in the series on Alternaria brassicae; with Botrytis cinerea [2]; in the series with Sphaerotheca fuliginea; in [3]) was 90 to 100% in each case. In addition, the inhibition at 20 ppm (with Alternaria alternata; in [4]) was 90 to 100% each time.
